Target: arginase
Test: arginase activity (urea production, ISPF colorimetric) in human placental homogenate
Type: biochemical

## N[C@@H](CCCCB(O)O)C(=O)O [ABH, 2(S)-amino-6-boronohexanoic acid]
  Ki: 4.78 ± 1.76 µM

Source: PMC6066978, “Chronic Intermittent Hypoxia-Induced Vascular Dysfunction in Rats is Reverted by N-Acetylcysteine Supplementation and Arginase Inhibition” (Frontiers in Physiology, 2018)
